Among the data in PubChem BioAssay (NCI) are GI50 and TGI values, retold here.

Among the test systems are SF-539 CNS; SK-MEL-5 melanoma; COLO 205 colon; UACC-62 melanoma; SK-MEL-2 melanoma; HCT-15 colon; HOP-62 NSCLC; MOLT-4 leukemia; IGROV1 ovarian; M14 melanoma.
Holding throughout (assay): NCI anticancer screen, dose series, 48 h

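Protocol summary: plate cells (96-well), add compound at 5 concentrations, incubate 48 h, interpolate endpoints linearly. GI50 is the concentration that inhibits growth by half. At the TGI there is no net growth.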

For `COc1cc(C2CC(c3cccc(Nc4ccncc4)c3)=NN2c2ccc(Cl)cc2)cc(OC)c1OC` (configuration not stated), the GI50 with SF-539 CNS was 1.64 µM; with SK-MEL-5 melanoma it was 1.75 µM; in the assay with COLO 205 colon, 2.12 µM; in the assay with UACC-62 melanoma, 1.69 µM; in the assay on SK-MEL-2 melanoma it was 1.89 µM; in the assay with HCT-15 colon, 1.7 µM. Besides, the TGI in the assay with SF-539 CNS worked out at 3.05 µM; in the assay with SK-MEL-5 melanoma, 3.14 µM; with COLO 205 colon, 4.79 µM; with UACC-62 melanoma, 3.14 µM; in the assay with SK-MEL-2 melanoma, 3.91 µM; with HCT-15 colon, 3.28 µM.
As for `COc1ccc(/C(Cl)=C(\C=O)c2ccc(OC)cc2)cc1`, the TGI with SF-539 CNS, in the assay on HOP-62 NSCLC, with SK-MEL-5 melanoma, in the assay with MOLT-4 leukemia, in the assay with UACC-62 melanoma and in the assay with SK-MEL-2 melanoma was greater than 100 µM throughout. For the same compound, the TGI with IGROV1 ovarian, with HCT-15 colon and in the assay on M14 melanoma was greater than 100 µM in each case.
Consider `Nc1ccccc1N=Cc1cc2cc([N+](=O)[O-])ccc2s1`, for which the TGI in the assay with SF-539 CNS was 27.4 µM; with HOP-62 NSCLC, 31.7 µM; in the assay with SK-MEL-5 melanoma, greater than 100 µM; in the assay on COLO 205 colon, 45.5 µM; with MOLT-4 leukemia, 13.6 µM; with UACC-62 melanoma it was 38.1 µM. Besides, the TGI is 37.3 µM in the assay on SK-MEL-2 melanoma, 99.3 µM in the assay on IGROV1 ovarian, greater than 100 µM with HCT-15 colon and 82.8 µM in the assay on M14 melanoma.
On to `COc1cc(/C=C/C(=O)Oc2ccc(NC(C)=O)cc2)ccc1C(=O)O/C=C/c1ccccc1`, for which the TGI in the assay on SF-539 CNS, in the assay on HOP-62 NSCLC, in the assay on SK-MEL-5 melanoma, with COLO 205 colon, in the assay with MOLT-4 leukemia and in the assay on UACC-62 melanoma was greater than 100 µM each time. Moreover, the TGI with SK-MEL-2 melanoma, with IGROV1 ovarian and with HCT-15 colon was greater than 100 µM in each case.
As for `COc1ccc(-c2nc3ncccn3c2-c2ccc(SC)cc2)cc1`, the TGI in the assay with SF-539 CNS is 5.85 µM; in the assay on HOP-62 NSCLC, 44.3 µM; in the assay with SK-MEL-5 melanoma, 4.29 µM; with COLO 205 colon it was 3.31 µM; with MOLT-4 leukemia it was greater than 100 µM; with UACC-62 melanoma, 13 µM. Moreover, the TGI with SK-MEL-2 melanoma is greater than 100 µM; with IGROV1 ovarian, 8.15 µM; in the assay on HCT-15 colon, greater than 100 µM; in the assay with M14 melanoma it was 12.2 µM.
Turning to `CSc1ccsc1-c1sc(-c2cc(SC)c(-c3sc(-c4cc(SC)c(-c5sccc5SC)s4)cc3SC)s2)cc1SC`, the TGI with SF-539 CNS, in the assay on HOP-62 NSCLC, in the assay on SK-MEL-5 melanoma, with COLO 205 colon, with MOLT-4 leukemia and in the assay with UACC-62 melanoma was greater than 100 µM throughout. Further, the TGI in the assay with SK-MEL-2 melanoma, in the assay on IGROV1 ovarian, in the assay on HCT-15 colon and in the assay with M14 melanoma was greater than 100 µM each time.
Take `CCc1nc(N)nc(N)c1-c1ccc([N+](C)(C)C)cc1`: the TGI in the assay on SF-539 CNS, with HOP-62 NSCLC, with SK-MEL-5 melanoma, with COLO 205 colon, with MOLT-4 leukemia and with UACC-62 melanoma was greater than 100 µM each time. Besides, the TGI with SK-MEL-2 melanoma, with IGROV1 ovarian, with HCT-15 colon and in the assay on M14 melanoma was greater than 100 µM in each case.
`COc1ccc2c(C(=O)c3cn(CCN4CCOCC4)c4ccccc34)cccc2c1`: the TGI in the assay on SF-539 CNS was greater than 100 µM; in the assay with HOP-62 NSCLC, greater than 100 µM; in the assay on SK-MEL-5 melanoma it was greater than 100 µM; with COLO 205 colon, greater than 92 µM; in the assay with MOLT-4 leukemia it was 64.4 µM; in the assay on UACC-62 melanoma, greater than 100 µM. The TGI in the assay with SK-MEL-2 melanoma was greater than 100 µM; in the assay with IGROV1 ovarian it was greater than 100 µM; in the assay on HCT-15 colon, greater than 100 µM; in the assay on M14 melanoma it was greater than 87.5 µM.
Regarding `CCOC(=O)c1c2c(n(Cc3ccccc3)c1C)C(=O)C(=O)c1ccccc1-2`, the TGI in the assay with SF-539 CNS was found to be 0.521 µM; with HOP-62 NSCLC, 0.536 µM; in the assay on SK-MEL-5 melanoma, 0.742 µM; in the assay with COLO 205 colon, 1.69 µM; in the assay on MOLT-4 leukemia it was 1.8 µM; in the assay with UACC-62 melanoma, 1.65 µM. In addition, the TGI with IGROV1 ovarian is greater than 100 µM; with HCT-15 colon, 2.58 µM; in the assay on M14 melanoma, 0.966 µM.
For the compound `CCSC1=N/C(=C\c2ccc(N(C)C)cc2)C(Cl)=N1`, the TGI with HOP-62 NSCLC, with SK-MEL-5 melanoma, with COLO 205 colon, with MOLT-4 leukemia, with UACC-62 melanoma and with SK-MEL-2 melanoma was greater than 100 µM each time. Moreover, the TGI with IGROV1 ovarian, in the assay on HCT-15 colon and with M14 melanoma was greater than 100 µM in each case.
On to `FC(F)(F)c1ccc2c(c1)nc(-c1ccc(Cl)cc1)n2CC1CCCN2CCCCC12` (configuration not stated), for which the TGI was determined as 28.8 µM in the assay on SF-539 CNS; 28.6 µM in the assay with HOP-62 NSCLC; 27.1 µM in the assay with SK-MEL-5 melanoma; 24.4 µM with COLO 205 colon; 13 µM in the assay with MOLT-4 leukemia; 28.1 µM in the assay on UACC-62 melanoma. Moreover, the TGI in the assay with SK-MEL-2 melanoma was 30.2 µM; in the assay on IGROV1 ovarian it was 27.8 µM; in the assay with HCT-15 colon it was 28.8 µM; with M14 melanoma, 28 µM.
Turning to `CCC(=O)O[C@H]1CC[C@H]2[C@@H]3CCC4=C/C(=N/OC(=O)c5cccc6cc7ccccc7nc56)CC[C@]4(C)[C@H]3CC[C@]12C`, the TGI in the assay with SF-539 CNS is greater than 100 µM; in the assay with HOP-62 NSCLC it was greater than 100 µM; with SK-MEL-5 melanoma, 31.5 µM; in the assay on COLO 205 colon, greater than 100 µM; in the assay with MOLT-4 leukemia, greater than 100 µM; in the assay with UACC-62 melanoma it was greater than 100 µM. Besides, the TGI in the assay on SK-MEL-2 melanoma, in the assay on IGROV1 ovarian, with HCT-15 colon and with M14 melanoma was greater than 100 µM in each case.
For `N=C1C(=N)c2ccccc2-c2ccccc21.N=C1C(=N)c2ccccc2-c2ccccc21.N=C1C(=N)c2ccccc2-c2ccccc21.[Cl-].[Ru+2]`, the TGI in the assay with SF-539 CNS came out at 3.27 µM; in the assay with HOP-62 NSCLC, 8.97 µM; in the assay with SK-MEL-5 melanoma, 3.71 µM; with COLO 205 colon it was 6.87 µM; in the assay on MOLT-4 leukemia, 5.46 µM; with UACC-62 melanoma it was 3.5 µM. Besides, the TGI came to 5.01 µM with IGROV1 ovarian and 3.72 µM in the assay on M14 melanoma. Also, the GI50 with SK-MEL-5 melanoma was 1.91 µM.
